From patent US20130196949A1, “Hydroxyalkyl starch in combination with cytostatica for the treatment of cancers by reduction of tumor growth rates” (Fresenius Kabi Deutschland GmbH, priority 2012, published 2013)
Like-named read-outs stand apart in the source and are kept apart here.

Key:
[1] = tested on: HNXF 1842 (Head and Neck Cancer, squamous cell carcinoma) xenograft; test: Tumor growth of HNXF 1842 human tumor xenograft in NMRI nu/nu mice; type: in vivo
Method: (§1) Animals and tumor implants were monitored daily until the maximum number of implants show clear signs of beginning solid tumor growth. […] The day of randomization was designated as day 0 of an experiment and was also the first day of dosing.
(§2) The tumor volume was determined by a two-dimensional measurement with callipers on the day of randomization (Day 0) and then once to twice weekly. Tumor volumes were calculated according to the following equation:
Tumor Vol[mm^3]=a[mm]×b^2[mm^2]×0.5
(§3) where “a” is the largest diameter and “b” is the perpendicular diameter of the tumor representing an idealized ellipsoid.
(§4) The relative volume of an individual tumor on day X (RTVx) was calculated by dividing the absolute volume [mm^3] of the respective tumor on day X (Tx) by the absolute volume of the same tumor on the day of randomization, i.e. on day 0 (T0), multiplied by 100, as shown by the following equation:
(§5) Group median of RTVs were calculated, considering only the tumors of animals that were alive on the day in question. Group median RTVs are used for drawing tumor growth curves.
Mice were either treated with Paclitaxel at a dose of 10 mg/kg i.v., with a combination of Voluven® 10% (20 ml/kg i.v.) and Paclitaxel (10 mg/kg i.v.), or with saline (20 ml/kg) i.v. at days 0, 7, 14, and 21. Tumor growth and body weight were determined over the course of the experiment. […]

[2] = Relative body weight of mice bearing HNXF 1842 tumors; type: in vivo; conditions: HNXF 1842 study, FIG. 4
Method: (§6) Starting on day 0, animals were weighed once to twice a week. Relative body weights (RBW) of individual animals are calculated by dividing the individual absolute body weight on day X (BWx) by the individual body weight on the day of randomization, i.e. day 0 (BW0), multiplied by 100, as shown by the following equation:
(§7) Group median of relative body weights were determined, considering only the weights of animals that were alive on the day in question.
Mice were either treated with Paclitaxel at a dose of 10 mg/kg i.v., with a combination of Voluven® 10% (20 ml/kg i.v.) and Paclitaxel (10 mg/kg i.v.), or with saline (20 ml/kg) i.v. at days 0, 7, 14, and 21. Tumor growth and body weight were determined over the course of the experiment.

[3] = tested on: RXF 1220 (renal cancer, hypernephroma) xenograft; conditions: day 27; Sunitinib 40 mg/kg p.o., Voluven 10% 20 ml/kg i.v. 1 hour prior; days 0-11
Method: as §1, §2
Tumor Vol[mm^3]=a[mm]×b^2[mm^2]×0.5
as §3, §4, §5
Mice were either treated with Sunitinib at a dose of 40 mg/kg p.o., with a combination of Voluven® 10% (20 ml/kg i.v.) and Sunitinib (40 mg/kg p.o.), or with saline (20 ml/kg) i.v. at days 0-11. Tumor growth and body weight were determined over the course of the experiment. […]

[4] = Relative body weight of mice bearing RXF 1220 tumors; type: in vivo; conditions: RXF 1220 study, FIG. 6
Method: Starting on day 0, animals were weighed once to twice a week. Relative body weights (RBW) of individual animals are calculated by dividing the individual absolute body weight on day X (BWx) by the individual body weight on the day of randomization, i.e. day 0 (BW0), multiplied by 100, as shown by the following equation: Group median of relative body weights were determined, considering only the weights of animals that were alive on the day in question. Mice were either treated with Sunitinib at a dose of 40 mg/kg p.o., with a combination of Voluven® 10% (20 ml/kg i.v.) and Sunitinib (40 mg/kg p.o.), or with saline (20 ml/kg) i.v. at days 0-11. Tumor growth and body weight were determined over the course of the experiment.

[5] = LXFE 397 study, FIG. 2
Method: as §6, §7
Tumor growth and body weight were determined over the course of the experiment.

[6] = tested on: LXFE 397/26N17 (Non-Small Cell Lung Cancer, squamous cell carcinoma) xenograft
Method: as §1, §2
Tumor Vol[mm^3]=a[mm]×b^2[mm^2]×0.5
as §3, §4, §5
Mice were either treated with Capecitabine at a dose of 100 mg/kg per orally (p.o.), with the plasma expander Voluven® 10% at a dose of 20 ml/kg bodyweight intravenously (i.v.), or with saline (20 ml/kg) i.v. at days 0, 4, 7, 11, 14, and 18. Tumor growth and body weight were determined over the course of the experiment. […]

## CC(=O)O[C@H]1C(=O)[C@@]2(C)[C@H]([C@H](OC(=O)c3ccccc3)[C@]3(O)C[C@H](OC(=O)[C@H](O)[C@@H](NC(=O)c4ccccc4)c4ccccc4)C(C)=C1C3(C)C)[C@]1(OC(C)=O)CO[C@@H]1C[C@@H]2O [Paclitaxel]
[1]; day 18, Paclitaxel 10 mg/kg i.v., Voluven 10% 20 ml/kg i.v. 1 hour prior, days 0, 7, 14, 21
  median relative tumor volume increase compared to day 0: approx. 7.1 fold
[1]; over 18 days, combination compared with reference drug alone
  inhibitory effect on tumor growth (in words): inhibited the tumor growth
[2]
  relative median body weight over time (in words): lowest increase

## CCN(CC)CCNC(=O)c1c(C)[nH]c(/C=C2\C(=O)Nc3ccc(F)cc32)c1C [Sunitinib]
[3]
  median relative tumor volume increase compared to day 0: approx. 8.5 fold
[4]
  relative median body weight over time (in words): increased slightly over time

## CCCCCOC(=O)Nc1nc(=O)n([C@@H]2O[C@H](C)[C@@H](O)[C@H]2O)cc1F [Capecitabine]
[5]
  relative median body weight over time (in words): did not increase the body weight as steadily as the other two
[6]; day 14, Capecitabine 100 mg/kg p.o., Voluven 10% 20 ml/kg i.v. 1 hour prior, days 0, 4, 7, 11, 14, 18
  median relative tumor volume increase compared to day 0: approx. 15.2 fold
[6]; over 14 days, combination compared with reference drug alone
  inhibitory effect on tumor growth (in words): moderately inhibited the tumor growth
